From ChEMBL document CHEMBL4602682, “Ikoamide, an Antimalarial Lipopeptide from an Okeania sp. Marine Cyanobacterium” (J Nat Prod, 2020)

Assays:
HL-60 [1] = assay: Cytotoxicity against human HL60 cells at 10 uM incubated for 72 hrs by MTT assay; type: cell-based; conditions: hl-60, 72 h
Plasmodium falciparum = assay: Antiplasmodial activity against asexual erythrocytic stage of Plasmodium falciparum 3D7 assessed as reduction in parasite growth after 72 hrs by LDH assay; type: functional, organism-based; conditions: 3D7, 72 h
HeLa = assay: Cytotoxicity against human HeLa cells at 10 uM incubated for 72 hrs by MTT assay; type: cell-based
HL-60 [2] = assay: Cytotoxicity against human HL60 cells incubated for 72 hrs by MTT assay; type: cell-based; conditions: HL-60, 72 h

Row | SMILES | Activity (HL-60 [1]) | IC50 (Plasmodium falciparum) [nM] | Activity (HeLa) | IC50 (HL-60 [2]) [nM]
1 | CCC[C@H](C[C@@H](CC(=O)N(C)[C@@H](C(=O)N[C@H](CO)C(=O)N[C@H](CC(C)C)C(=O)N(C)[C@@H](CC(C)C)C(=O)N[C@H](C(=O)N(C)[C@H](C(=O)N(C)[C@@H](CCC(N)=O)C(=O)N(C)[C@@H](Cc1ccc(OC)cc1)C(=O)OC)[C@@H](C)CC)[C@@H](C)O)[C@@H](C)CC)OC)OC | Non-Toxic | 140 | Non-Toxic | 
2 | COc1cccc2c1C(=O)c1c(O)c3c(c(O)c1C2=O)C[C@@](O)(C(=O)CO)C[C@@H]3O[C@H]1C[C@H](N)[C@H](O)[C@H](C)O1 [DOXORUBICIN] |  |  |  | 46
